# Measurements taken from US20230000896A1, “ALDH3A2 INHIBITION AND FERROPTOSIS INDUCTION FOR CANCER THERAPY” (President and Fellows of Harvard College, priority 2019, published 2023).
# Residues, ends and D or L forms follow the SMILES beside them. *: point of attachment. Cbz = O=C(OCc1ccccc1)*; CH2F = FC*
# Assays:
# [1] = system: leukemic stem and progenitor cells (LSPCs); assay: cellular ROS by flow cytometry in Aldh3a2-control and mutant LSPCs; assay type: cell-based, mouse; details: FIG. 5C
# Source text: (§1) Aldehyde dehydrogenases metabolize aldehydes to mitigate oxidative stress and prevent lipid peroxidation in the cell. […] Next, oxidative damage in AML cells lacking Aldh3a2 was examined. […] To further assess deficits in detoxification capacity, the effects of 4-hydroxynonenal (4-HNE) was studied next, a commonly investigated fatty aldehyde and a byproduct of arachidonic acid catabolism, on cellular ROS, lipid peroxidation and proliferation in Aldh3a2-deficient leukemia stem and progenitor cells. […] Lastly, normal granulocyte monocyte precursors (N-GMPs) were investigated. […] Spleens from Aldh3a2-Ctrl and Aldh3a2-mut mice were utilized to obtain single cell suspensions and were incubated with C11 Bodipy lipid peroxidation sensor (ThermoFisher Cat #C10445) or CellRox reagent (ThermoFisher Cat #C10491) for 30 minutes at […]. Cells were stained with biotinylated antibodies against lineage markers, SA-Pacific Orange conjugate (ThermoFisher) and APC Rat Anti-Mouse CD117 (BD Biosciences) and read on the LSRII flow cytometer. Lipid peroxidation and cellular ROS was assessed in Lineage-, c-Kit^+ and Lineage^−, c-Kit^hi populations. RSL3 (at 5 uM), 4-HNE (5 uM) and ZVAD (at 10 uM) was added to Lin-Kit- or Lin-Kit+ leukemic cells in RPMI containing 10 ng/ul of murine IL3, IL6 and SCF. […] Number of cells were measured by Celltiter GloR 2.0 assay at days 0, 1 and 3. […]
# [2] = system: leukemic stem and progenitor cells (LSPCs); assay: lipid peroxidation by flow cytometry in Aldh3a2-control and mutant LSPCs; assay type: cell-based, mouse; details: FIG. 5D
# Source text: as §1
# [3] = system: leukemic stem and progenitor cells (LSPCs); assay: growth kinetics of Aldh3a2-control and mutant LSPCs treated with 4HNE; assay type: cell-based, mouse; details: 4-HNE 5 uM, FIG. 5E
# Source text: Aldehyde dehydrogenases metabolize aldehydes to mitigate oxidative stress and prevent lipid peroxidation in the cell. […] Next, oxidative damage in AML cells lacking Aldh3a2 was examined. […] To further assess deficits in detoxification capacity, the effects of 4-hydroxynonenal (4-HNE) was studied next, a commonly investigated fatty aldehyde and a byproduct of arachidonic acid catabolism, on cellular ROS, lipid peroxidation and proliferation in Aldh3a2-deficient leukemia stem and progenitor cells. […] Lastly, normal granulocyte monocyte precursors (N-GMPs) were investigated. […] RSL3 (at 5 uM), 4-HNE (5 uM) and ZVAD (at 10 uM) was added to Lin-Kit- or Lin-Kit+ leukemic cells in RPMI containing 10 ng/ul of murine IL3, IL6 and SCF. Ferrostatin (10 uM) was added to bulk leukemic cells in RPMI containing 10 ng/ul of murine IL3, TPO and FLT3L. Number of cells were measured by Celltiter GloR 2.0 assay at days 0, 1 and 3. 10 mM of NAC was added to RPMI with 10 percent FBS and 1 percent P/S for relevant rescue experiments. Drugs were purchased from Sigma.
# [4] = system: Aldh3a2-control and mutant LSPCs; assay: frequency of live Aldh3a2-control and mutant LSPCs after drug treatment; assay type: cell-based, mouse; details: three days
# Source text: The specific mechanism for the reduced number of leukemic cells upon Aldh3a2 deletion was next investigated.
# Lipid peroxidation has been linked to the induction of ferroptosis, a non-apoptotic, iron-dependent form of cell death. An increase in lysophospholipids, especially those lacking PUFA tails as was observed (FIG. 13E), is a hallmark of ferroptosis. In addition, the ability to rescue cell death by providing exogenous MUFAs, as was found (FIG. 12H), is another feature of ferroptotic cell death. To further confirm these findings cells were treated with ferrostatin, an inhibitor of iron-dependent oxidative damage.
# To further assess the relationship to ferroptosis, a key enzyme protecting cells from ferroptotic cell death, glutathione peroxidase 4 (Gpx4) was genetically and pharmacologically targeted. […] Recent findings have shown that activation of MUFAs by Acs13 can also promote resistance to ferroptosis. Acs13 expression was not different between Aldh3a2 control and mutant leukemic cells (FIG. 13F).
# (§2) RSL3 (at 5 uM), 4-HNE (5 uM) and ZVAD (at 10 uM) was added to Lin-Kit- or Lin-Kit+ leukemic cells in RPMI containing 10 ng/ul of murine IL3, IL6 and SCF. Ferrostatin (10 uM) was added to bulk leukemic cells in RPMI containing 10 ng/ul of murine IL3, TPO and FLT3L. Number of cells were measured by Celltiter GloR 2.0 assay at days 0, 1 and 3. 10 mM of NAC was added to RPMI with 10 percent FBS and 1 percent P/S for relevant rescue experiments. Drugs were purchased from Sigma.
# THP-1 cells = assay: growth kinetics of ALDH3A2-depleted THP-1 cells treated with NAC; assay type: cell-based, human; details: 10 mM NAC, FIG. 12D
# Procedure: In cells cultured in [1,2-^13C2]glucose, the oxPPP generates singly ^13C labeled (M1) intermediates, glycolysis generates doubly 13C labeled (M2) intermediates, and the M1/M2 ratio reflects the oxPPP flux relative to glycolysis (FIG. 12E). […] Cells lacking ALDH3A2 thus fail to increase antioxidant defense mechanisms to mitigate the increased oxidative stress and prevent lipid peroxidation.
# as §2
# [5] = system: Aldh3a2-control and mutant leukemic cells; assay: fatty acid rescue experiments (viability by flow cytometry); assay type: cell-based, mouse; details: FIG. 12H
# Procedure: By detoxifying fatty aldehydes, Aldh3a2 generates fatty acids that can be used for biosynthetic purposes (FIG. 12A). […] To further investigate the consequences of this depletion of 18-carbon fatty acids in Aldh3a2 knockout cells lipidomics analysis was performed on leukemic cells derived from conditional knockout mice (FIGS. 13A-13E). Several, but not all, phospholipid species containing 18-carbon fatty acid tails were decreased in mutant cells across lipid classes, including phosphatidylcholines, phosphatidylethanolamines, cardiolipins and phosphatidic acids (FIGS. 13A-13D).
# Cell viability was analyzed using Annexin V-APC (BioLegend) and 7-AAD (ThermoFisher Scientific) with Annexin V^−7-AAD^− cells considered as viable cells. Analysis was performed on A BD LSR II flow cytometer.
# Bulk GFP+ cells sorted from wildtype or mutant mice were plated in a 24 well plate at 50,000 cells per well. Oleic acid (Sigma), complexed to fatty acid-free bovine serum albumin, was added at concentrations of 62.5, 125 or 250 μM. Ethanol/albumin was used as control. 72 hours later cell viability was analyzed by flow cytometry.
# [6] = system: MLL-AF9 leukemia (L-GMPs); assay: survival of sublethally irradiated C57BL/6J mice transplanted with shRNA-expressing L-GMPs; assay type: in vivo, mouse; details: ten thousand L-GMPs transplanted, vs control shRNA, FIG. 2D
# Source text: To evaluate Aldh3a2 knockdown in vivo, ten thousand L-GMPs expressing Aldh3a2-sh-1, Aldh3a2-sh-2 or control shRNA were transplanted into sublethally irradiated C57BL/6J recipient mice and followed over time.
# Aldh3a2 = assay: Q-PCR validation of Aldh3a2 knockdown in L-GMPs; assay type: cell-based, mouse; details: FIG. 2B
# Procedure: (§3) However, its functional role in normal and malignant hematopoiesis is unclear. […] Aldh3a2 knockdown in L-GMPs decreased the number of cells in a methylcellulose assay (FIG. 2C and FIG. 9A) that quantifies growth on a per cell basis.
# RNA was extracted from cells using the RNeasy Micro Kit (Qiagen) and RT-PCR was performed using the SuperScript™ IV One-Step RT-PCR System according to the manufacturer's instructions. Taqman probes were used to perform Q-PCR for murine and human Aldh3a2.
# L-GMPs = assay: methylcellulose assay of shRNA-infected L-GMPs; assay type: cell-based, mouse; details: compared to control shRNA, FIG. 2C
# Procedure: as §3
# (§4) Ten thousand N-GMPs or L-GMPs infected with lentiviruses expressing relevant shRNAs were added to 3 cc of methylcellulose (StemCell Technologies) plated per well of a 6 well plate. Number of cells were counted on day 7.
# N-GMPs = assay: methylcellulose assay of shRNA-infected N-GMPs; assay type: cell-based, mouse; details: compared to control shRNA, FIG. 3A
# Source text: Then a constitutive knockout mouse model (KO) was utilized where Aldh3a2 enzyme activity was decreased to less than 50 percent of wild-type (WT) control mice (FIG. 3B). (This model consists of a deletion of exon 4 of the Aldh3a2 gene which completely destroys Aldh3a2 enzyme activity but assays of cell homogenates measure total fatty aldehyde oxidizing activity including aldehyde dehydrogenases other than Aldh3a2).
# as §4
compound,measurement,setting,value
"CCCCCC(O)/C=C/C=O (stereo not shown) [4-HNE, 4-hydroxynonenal]",cellular ROS,[1]; 4-HNE exposure for 24 hours,increased cellular ROS in mutant but not control cells
same,lipid peroxidation,[2]; 4-HNE exposure,increased levels of lipid peroxidation in mutant but not in control cells
same,"sensitivity to 4HNE, mutant versus control",[3],significantly greater in mutant than in control cells
same,cell growth,[3]; control and mutant cells,reduced cell growth
CCOC(=O)c1ccc(NC2CCCCC2)c(N)c1 [Ferrostatin],cell death in Aldh3a2 mutant leukemia cells,"[4]; Ferrostatin 10 uM, FIG. 6H and 14B",completely prevented the cell death
"CC(=O)N[C@@H](CS)C(=O)O [NAC, N-Acetyl-L-Cysteine]",rescue of ALDH3A2 depleted THP-1 cells,THP-1 cells,partial rescue in the population of cells with moderate (sh-A) but not severe (sh-B) ALDH3A2 depletion
COC(=O)c1ccc([C@@H]2c3[nH]c4ccccc4c3C[C@@H](C(=O)OC)N2C(=O)CCl)cc1 [RSL3],sensitivity of Aldh3a2 deficient Lin-cKit+ AML cells,"[4]; RSL3 5 uM, FIG. 6I and 14C",increased sensitivity
CC(NC(=O)C(NC(=O)OCc1ccccc1)C(C)C)C(=O)NC(CC(=O)O)C(=O)CF (stereo not drawn) [Z-VAD] (Cbz-Val-Ala-Asp-CH2F; configuration not given here),rescue of cell death in Aldh3a2 deficient cells,"[4]; ZVAD 10 uM, Lin- cKit+ cells, FIG. 6F",did not rescue the cell death
CCCCCCCC/C=C\CCCCCCCC(=O)O [oleic acid],rescue of the effects of Aldh3a2 depletion,"[5]; exogenous oleic acid (18:1), conditional mutant mice",rescued the effects of Aldh3a2 depletion
same,concentration of maximum rescue of cells from death,"[5]; three days culture, 62.5, 125 or 250 μM tested",125 µM
"Aldh3a2-sh-1: shRNA against mouse Aldh3a2, GCAGGAAATGCTGTGATTATA (SEQ ID NO: 1)",survival of recipient mice,[6],survive significantly longer than control animals
same,Aldh3a2 expression in L-GMPs,Aldh3a2,decreased Aldh3a2 expression in L-GMPs
same,number of L-GMPs in methylcellulose,L-GMPs,significantly decreases the number of L-GMPs in methylcellulose
same,number of N-GMPs in methylcellulose,N-GMPs,no difference in the number of N-GMPs
"Aldh3a2-sh-2: shRNA against mouse Aldh3a2, CCTCTGGCTCTTTATGTATTT (SEQ ID NO: 2)",survival of recipient mice,[6],survive significantly longer than control animals
same,Aldh3a2 expression in L-GMPs,Aldh3a2,decreased Aldh3a2 expression in L-GMPs
same,number of L-GMPs in methylcellulose,L-GMPs,significantly decreases the number of L-GMPs in methylcellulose
Vitamin E,total ROS,[1]; 4HNE plus vitamin E treatment,decreased total ROS in control cells but was unable to do so in mutant cells
same,lipid peroxidation,[2]; 4HNE plus vitamin E treatment,significantly decreased lipid peroxidation in both populations
